# US11040981B2, “Pyrrolotriazine compounds and methods of inhibiting TAM kinases” (Syros Pharmaceuticals, Inc., priority 2017, dated 2021)
# Assays:
# [1] = target: T1, MERTK (Homo sapiens, UniProt Q12866); assay: TR-FRET kinase activity assay, MERTK; assay type: biochemical; settings: for IC50: TR-FRET activity assay, ATP at Km, 60 minutes, read-out: Mer IC50; for FLT3/Mer ratio (FLT3 IC50/Mer IC50): ratio of Mer to FLT3: FLT3 IC50/Mer IC50
# T1 sequence (Q12866 21-999): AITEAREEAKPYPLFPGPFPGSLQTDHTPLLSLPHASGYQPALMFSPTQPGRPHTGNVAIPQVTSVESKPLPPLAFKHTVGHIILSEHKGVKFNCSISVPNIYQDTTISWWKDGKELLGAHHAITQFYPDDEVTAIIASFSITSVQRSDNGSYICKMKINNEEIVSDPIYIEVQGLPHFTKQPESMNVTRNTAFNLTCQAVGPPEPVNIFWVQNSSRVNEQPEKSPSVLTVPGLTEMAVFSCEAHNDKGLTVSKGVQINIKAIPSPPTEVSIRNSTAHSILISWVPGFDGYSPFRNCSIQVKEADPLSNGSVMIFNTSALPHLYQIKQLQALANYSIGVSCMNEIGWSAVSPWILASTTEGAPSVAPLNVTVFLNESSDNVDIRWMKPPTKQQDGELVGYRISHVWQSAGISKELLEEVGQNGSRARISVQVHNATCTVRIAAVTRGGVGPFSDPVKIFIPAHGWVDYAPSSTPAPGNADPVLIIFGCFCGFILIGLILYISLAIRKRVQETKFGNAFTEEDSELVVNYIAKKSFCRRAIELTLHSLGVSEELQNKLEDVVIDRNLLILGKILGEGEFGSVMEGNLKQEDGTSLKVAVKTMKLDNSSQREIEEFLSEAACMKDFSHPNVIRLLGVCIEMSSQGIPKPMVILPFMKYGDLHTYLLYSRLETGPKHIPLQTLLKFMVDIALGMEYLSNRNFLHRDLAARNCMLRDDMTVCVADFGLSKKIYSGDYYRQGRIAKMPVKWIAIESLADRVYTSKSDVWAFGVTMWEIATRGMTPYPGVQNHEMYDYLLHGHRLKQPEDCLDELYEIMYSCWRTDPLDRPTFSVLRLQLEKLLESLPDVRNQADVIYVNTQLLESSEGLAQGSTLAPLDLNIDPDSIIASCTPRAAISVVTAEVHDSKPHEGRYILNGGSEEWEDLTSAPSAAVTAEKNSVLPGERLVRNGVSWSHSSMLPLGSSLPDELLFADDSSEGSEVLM
# Outline: (§1)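 Compounds were tested against each kinase with ATP set at its own Km and a labelled tyrosine peptide substrate. Following one hour at room temperature in buffer containing 10 mM MgCl2 and 1 mM DTT, phosphorylated product was detected by Europium antibody TR-FRET after EDTA quench, and IC50 values were calculated.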
# [2] = target: T2, TYRO3 (Homo sapiens, UniProt Q06418); assay: TR-FRET kinase activity assay, TYRO3; assay type: biochemical; settings: ATP at Km, 60 minutes
# T2 sequence (Q06418 41-890): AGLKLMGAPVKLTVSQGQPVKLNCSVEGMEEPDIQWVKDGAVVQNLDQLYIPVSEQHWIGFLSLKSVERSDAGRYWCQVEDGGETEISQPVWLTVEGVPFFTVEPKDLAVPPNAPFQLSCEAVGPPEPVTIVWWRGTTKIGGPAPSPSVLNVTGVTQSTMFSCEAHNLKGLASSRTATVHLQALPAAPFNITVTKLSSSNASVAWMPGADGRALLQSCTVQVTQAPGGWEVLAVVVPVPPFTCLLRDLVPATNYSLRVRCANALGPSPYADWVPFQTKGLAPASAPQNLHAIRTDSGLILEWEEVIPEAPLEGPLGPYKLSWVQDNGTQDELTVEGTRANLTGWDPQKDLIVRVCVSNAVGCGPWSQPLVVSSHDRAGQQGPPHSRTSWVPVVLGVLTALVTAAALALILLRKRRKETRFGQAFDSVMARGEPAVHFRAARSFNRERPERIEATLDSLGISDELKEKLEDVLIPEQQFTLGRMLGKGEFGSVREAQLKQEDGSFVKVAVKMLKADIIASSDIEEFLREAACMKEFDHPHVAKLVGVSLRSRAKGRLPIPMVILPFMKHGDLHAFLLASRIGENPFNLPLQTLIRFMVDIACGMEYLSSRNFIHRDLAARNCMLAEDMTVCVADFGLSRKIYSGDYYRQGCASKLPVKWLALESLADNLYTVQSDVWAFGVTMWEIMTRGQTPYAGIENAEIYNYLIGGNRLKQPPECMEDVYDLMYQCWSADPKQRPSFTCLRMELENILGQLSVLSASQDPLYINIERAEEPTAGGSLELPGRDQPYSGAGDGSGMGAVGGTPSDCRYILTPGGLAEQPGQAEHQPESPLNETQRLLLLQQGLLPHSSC
# Outline: as §1
SMILES,IC50 [1],FLT3/Mer ratio (FLT3 IC50/Mer IC50) [1],IC50 [2]
COCC(C)Nc1ncc2c(-c3ccc(C(C)N4CCOCC4)cc3)cc(C3CCC(O)CC3)n2n1 (mixture of isomers) [Compound 180],≤ 100 nM,++ (“++” represents a ratio of between 10 and 100),≤ 100 nM
CC(Nc1ncc2c(-c3ccc(CN4CCN(C)CC4)cc3)cc([C@H]3CC[C@H](O)CC3)n2n1)C(F)F (mixture of isomers) [Compound 148],≤ 100 nM,+++ (“+++” represents a ratio of >100),≤ 100 nM
"CCCCC[C@H](C)Nc1ncc2c(-c3ccc(S(=O)(=O)N4CCOCC4)cc3)cc([C@H]3CC[C@H](O)CC3)n2n1 [Compound 102, (1S,4r)-4-(2-((S)-heptan-2-ylamino)-5-(4-(morpholinosulfonyl)phenyl)pyrrolo[2,1-f][1,2,4]triazin-7-yl)cyclohexanol]",≤ 100 nM,++ (“++” represents a ratio of between 10 and 100),≤ 100 nM
COC[C@H](C)Nc1ncc2c(-c3ccc(C(=O)N4CCN(C)CC4)cc3)cc([C@H]3CC[C@H](O)CC3)n2n1 [Compound 144],≤ 100 nM,+++ (“+++” represents a ratio of >100),≤ 100 nM
CC(CC#N)Nc1ncc2c(-c3ccc(CN4CCN(C)CC4)cc3)cc(C3CCC(O)CC3)n2n1 (stereo not drawn) [Compound 145],≤ 100 nM,++ (“++” represents a ratio of between 10 and 100),≤ 100 nM
COC[C@H](C)Nc1ncc2c(-c3ccnc(C)c3)cc([C@H]3CC[C@H](O)CC3)n2n1 [Compound 146],≤ 100 nM,+++ (“+++” represents a ratio of >100),≤ 100 nM
CNC(=O)c1ccc(-c2cc([C@H]3CC[C@H](O)CC3)n3nc(N[C@@H](C)COC)ncc23)cn1 [Compound 147],≤ 100 nM,+++ (“+++” represents a ratio of >100),≤ 100 nM
COCC1(Nc2ncc3c(-c4ccc(CN5CCN(C)CC5)cc4)cc(C4CCC(O)CC4)n3n2)CC1 (stereo not drawn) [Compound 149],≤ 100 nM,++ (“++” represents a ratio of between 10 and 100),≤ 100 nM
COC[C@H](C)Nc1ncc2c(-c3ccc(CN4CCN(C(C)=O)CC4)cc3)cc([C@H]3CC[C@H](O)CC3)n2n1 [Compound 150],≤ 100 nM,++ (“++” represents a ratio of between 10 and 100),≤ 100 nM
COC[C@H](C)Nc1ncc2c(-c3cnn(C4CCOCC4)c3)cc([C@H]3CC[C@H](O)CC3)n2n1 [Compound 151],≤ 100 nM,+++ (“+++” represents a ratio of >100),≤ 100 nM
COC[C@H](C)Nc1ncc2c(-c3cnn(C)c3)cc([C@H]3CC[C@H](O)CC3)n2n1 [Compound 152],≤ 100 nM,+++ (“+++” represents a ratio of >100),≤ 100 nM
COC[C@H](C)Nc1ncc2c(-c3cnn(CCN4CCOCC4)c3)cc([C@H]3CC[C@H](O)CC3)n2n1 [Compound 153],≤ 100 nM,+++ (“+++” represents a ratio of >100),≤ 100 nM
"COC[C@H](C)Nc1ncc2c(-c3ccc(CN4CCN(c5nccc(C)n5)CC4)cc3)cc([C@H]3CC[C@H](O)CC3)n2n1 [Compound 154, (trans)-4-(2-(((S)-1-methoxypropan-2-yl)amino)-5-(4-((4-(4-methylpyrimidin-2-yl)piperazin-1-yl)methyl)phenyl)pyrrolo[2,1-f][1,2,4]triazin-7-yl)cyclohexanol]",≤ 100 nM,+++ (“+++” represents a ratio of >100),≤ 100 nM
COC[C@H](C)Nc1ncc2c(-c3ccc(CN4CCN(C)CC4)cc3)cc([C@H]3CC[C@@H](O)CC3)n2n1 [Compound 155],≤ 100 nM,++ (“++” represents a ratio of between 10 and 100),≤ 100 nM
COC[C@H](C)Nc1ncc2c(-c3ccc([C@@H](C)N4CCOCC4)cc3)cc([C@H]3CC[C@H](O)CC3)n2n1 [Compound 156],≤ 100 nM,++ (“++” represents a ratio of between 10 and 100),≤ 100 nM
COC[C@H](C)Nc1ncc2c(-c3ccc([C@H](C)N4CCOCC4)cc3)cc([C@H]3CC[C@H](O)CC3)n2n1 [Compound 157],≤ 100 nM,++ (“++” represents a ratio of between 10 and 100),≤ 100 nM
COCC(C)Nc1ncc2c(-c3cccc(C(C)N4CCCC4)c3)cc(C3CCC(O)CC3)n2n1 (stereo not drawn) [Compound 158],≤ 100 nM,+++ (“+++” represents a ratio of >100),≤ 100 nM
CCOC(=O)Cn1cc(-c2cc([C@H]3CC[C@H](O)CC3)n3nc(N[C@@H](C)COC)ncc23)cn1 [Compound 159],≤ 100 nM,+++ (“+++” represents a ratio of >100),≤ 100 nM
COC[C@H](C)Nc1ncc2c(-c3cnn(CC(=O)O)c3)cc([C@H]3CC[C@H](O)CC3)n2n1 [Compound 160],≤ 100 nM,+++ (“+++” represents a ratio of >100),≤ 100 nM
COCCC(C)Nc1ncc2c(-c3ccc(CN4CCCC4)cc3)cc(C3CCC(O)CC3)n2n1 (stereo not drawn) [Compound 161],≤ 100 nM,++ (“++” represents a ratio of between 10 and 100),≤ 100 nM
COC[C@H](C)Nc1ncc2c(-c3cnn(CC(=O)N4CCOCC4)c3)cc([C@H]3CC[C@H](O)CC3)n2n1 [Compound 162],≤ 100 nM,+++ (“+++” represents a ratio of >100),≤ 100 nM
"COC[C@H](C)Nc1ncc2c(-c3ccc(CN4CCOCC4)cc3)cc([C@H]3CC[C@@H](O)CC3)n2n1 [Compound 163, (cis)-4-(2-(((S)-1-methoxypropan-2-yl)amino)-5-(4-(morpholinomethyl)phenyl)pyrrolo[2,1-f][1,2,4]triazin-7-yl)cyclohexanol]",≤ 100 nM,++ (“++” represents a ratio of between 10 and 100),≤ 100 nM
COCC(C)Nc1ncc2c(-c3ccc(C(C)N4CCCC4)cc3)cc(C3CCC(O)CC3)n2n1 (stereo not drawn) [Compound 164],≤ 100 nM,++ (“++” represents a ratio of between 10 and 100),≤ 100 nM
COC[C@H](C)Nc1ncc2c(-c3ccc([C@H](C)N4CCCC4)cc3)cc([C@H]3CC[C@H](O)CC3)n2n1 [Compound 165],≤ 100 nM,++ (“++” represents a ratio of between 10 and 100),≤ 100 nM
COCC(C)Nc1ncc2c(-c3ccc(C(C)N4CCCC4)cc3)cc(C3CCC(O)CC3)n2n1 (stereo not drawn) [Compound 166],≤ 100 nM,++ (“++” represents a ratio of between 10 and 100),≤ 100 nM
COC[C@H](C)Nc1ncc2c(-c3cnn(CC(C)C)c3)cc([C@H]3CC[C@H](O)CC3)n2n1 [Compound 167],≤ 100 nM,+++ (“+++” represents a ratio of >100),≤ 100 nM
